Results taken from BindingDB's records for PubMed 2338642 (Marion Merrell Dow, 1990).
Where “and” joins values, the source holds several entries; their conditions need not be identical. Identical values can stand only once.

Each compound was assayed against Voltage-dependent L-type calcium channel subunit alpha-1C (Rattus norvegicus, UniProt P22002).
Chain of Voltage-dependent L-type calcium channel subunit alpha-1C (P22002 whole entry): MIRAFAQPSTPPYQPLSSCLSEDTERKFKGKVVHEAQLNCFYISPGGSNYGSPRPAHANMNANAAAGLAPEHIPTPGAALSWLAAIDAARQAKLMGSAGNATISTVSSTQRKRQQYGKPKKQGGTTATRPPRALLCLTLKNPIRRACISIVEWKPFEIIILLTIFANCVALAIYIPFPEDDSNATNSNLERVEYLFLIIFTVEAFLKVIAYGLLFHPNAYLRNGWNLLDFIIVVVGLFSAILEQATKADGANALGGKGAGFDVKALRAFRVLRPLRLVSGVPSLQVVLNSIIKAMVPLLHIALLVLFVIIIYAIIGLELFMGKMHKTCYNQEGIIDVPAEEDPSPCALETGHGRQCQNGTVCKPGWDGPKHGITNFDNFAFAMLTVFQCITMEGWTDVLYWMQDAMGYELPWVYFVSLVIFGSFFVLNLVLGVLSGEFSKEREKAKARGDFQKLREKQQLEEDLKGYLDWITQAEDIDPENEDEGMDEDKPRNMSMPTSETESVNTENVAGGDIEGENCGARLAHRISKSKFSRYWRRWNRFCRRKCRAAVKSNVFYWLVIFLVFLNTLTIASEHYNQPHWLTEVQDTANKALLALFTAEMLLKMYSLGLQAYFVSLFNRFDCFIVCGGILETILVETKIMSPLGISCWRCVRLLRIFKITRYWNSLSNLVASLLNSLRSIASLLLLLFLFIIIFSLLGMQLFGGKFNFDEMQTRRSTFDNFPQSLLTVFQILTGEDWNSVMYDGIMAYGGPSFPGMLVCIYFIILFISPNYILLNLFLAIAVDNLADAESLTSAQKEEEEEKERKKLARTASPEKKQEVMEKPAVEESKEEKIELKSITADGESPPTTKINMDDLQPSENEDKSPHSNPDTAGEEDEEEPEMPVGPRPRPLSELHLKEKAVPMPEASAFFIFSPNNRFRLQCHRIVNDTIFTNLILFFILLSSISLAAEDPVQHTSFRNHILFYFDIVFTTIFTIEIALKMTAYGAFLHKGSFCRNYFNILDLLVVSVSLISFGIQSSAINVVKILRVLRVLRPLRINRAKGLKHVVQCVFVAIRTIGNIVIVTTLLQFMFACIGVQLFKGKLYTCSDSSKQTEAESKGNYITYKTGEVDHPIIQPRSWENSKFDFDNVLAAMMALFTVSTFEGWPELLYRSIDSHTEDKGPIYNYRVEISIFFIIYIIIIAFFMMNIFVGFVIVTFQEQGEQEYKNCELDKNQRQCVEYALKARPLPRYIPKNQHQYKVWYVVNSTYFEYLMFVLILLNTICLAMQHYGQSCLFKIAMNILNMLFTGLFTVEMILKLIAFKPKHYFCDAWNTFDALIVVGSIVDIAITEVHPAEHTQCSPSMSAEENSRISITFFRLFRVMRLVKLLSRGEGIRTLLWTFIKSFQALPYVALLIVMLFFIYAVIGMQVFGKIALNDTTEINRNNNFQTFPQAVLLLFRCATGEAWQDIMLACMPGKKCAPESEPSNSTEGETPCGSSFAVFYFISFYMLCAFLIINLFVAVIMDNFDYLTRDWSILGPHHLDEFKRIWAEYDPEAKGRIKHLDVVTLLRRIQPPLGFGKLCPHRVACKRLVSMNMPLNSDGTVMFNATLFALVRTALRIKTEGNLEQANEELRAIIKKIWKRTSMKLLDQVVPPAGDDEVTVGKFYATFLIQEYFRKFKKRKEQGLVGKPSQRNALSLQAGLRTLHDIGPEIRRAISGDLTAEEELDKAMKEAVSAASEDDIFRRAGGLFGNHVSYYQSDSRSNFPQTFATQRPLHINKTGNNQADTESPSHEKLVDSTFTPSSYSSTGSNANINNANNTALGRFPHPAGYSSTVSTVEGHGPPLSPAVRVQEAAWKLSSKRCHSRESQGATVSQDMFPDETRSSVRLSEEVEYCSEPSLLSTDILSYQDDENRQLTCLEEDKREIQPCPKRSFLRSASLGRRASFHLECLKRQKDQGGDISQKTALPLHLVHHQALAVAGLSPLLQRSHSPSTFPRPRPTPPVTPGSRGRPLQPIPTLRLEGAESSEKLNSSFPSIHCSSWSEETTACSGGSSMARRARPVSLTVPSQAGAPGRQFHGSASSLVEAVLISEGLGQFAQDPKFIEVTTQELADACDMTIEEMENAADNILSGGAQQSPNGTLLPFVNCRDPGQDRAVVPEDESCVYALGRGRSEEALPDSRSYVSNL
For `COc1ccc([C@@H]2Sc3cc(Cl)ccc3N(CCN(C)C)C(=O)[C@@H]2OC(C)=O)cc1` [CAS_96128-92-6], the Ki was > 10 µM. `COc1cc2nc(N3CCN(C(=O)c4ccco4)CC3)nc(N)c2cc1OC` [[3H]-Minipress] was tested, and the Ki was 6 µM and > 10 µM. In the case of `COc1ccc([C@H]2Sc3cc(Cl)ccc3N(CCN(C)C)C(=O)[C@H]2OC(C)=O)cc1` [l-TA-3090], the Ki is reported as > 10 µM.
